The source of these data is patent publication US9980957B2, “Histone deacetylase (HDAC) inhibitors for the treatment of cancer” (TopoTarget UK Limited, priority 2005, dated 2018).

Where two headings read alike, the source gives them in different places.

In series [1] the test system is AMO-1 plasmacytoma cell line. The series is described as follows: CellTiter-Glo cell viability assay. It is filed as cell-based. Particulars: Homo sapiens, AMO1, 72 h, read-out: PXD-101 IC50. The protocol:
(§1) Percent activity (% activity), was calculated for each test compound as: % activity={(S^c−B)/(S^o−B)}×100
(§2) wherein S^c denotes signal measured in the presence of the compound being tested, S^o denotes signal measured in the absence of the compound being tested, and B denotes the background signal measured in blank wells containing medium only. The IC50 corresponds to the drug concentration which achieves 50% activity of untreated control cultures. IC50 values were calculated using the software package Prism 3.0 (GraphPad Software Inc., San Diego, Calif.) with variable slope option.
(§3) This example reports the effects of PXD-101 on six distinct multiple myeloma cell lines, three plasma cell leukemia cell lines and one plasmacytoma. The cells were incubated with PXD-101 for 72 hours in vitro, and their viability measured by the CellTiter-Glo assay.

Series [2] deals with EJM multiple myeloma cell line. Put plainly: CellTiter-Glo cell viability assay. Particulars: Homo sapiens, 72 h, read-out: PXD-101 IC50. The format is cell-based. The protocol: as §1, §2, §3
In general terms: In ATP-based viability assays light output follows the ATP content of the culture.

The test system of series [3] is KARPAS-620 plasma cell leukemia cell line. The series is described as follows: CellTiter-Glo cell viability assay. The format is cell-based. Particulars: KARPAS-620, plasma cell leukemia t(8;14)(q24;q32); 72 h; read-out: PXD-101 IC50. The protocol:
as §1, §2, §3

Series [4] has as its system KMS-12-BM multiple myeloma cell line. The series is described as follows: CellTiter-Glo cell viability assay. It is filed as cell-based. Particulars: Homo sapiens, MM t(11;14)(q13;q32), 72 h, read-out: PXD-101 IC50. The protocol: as §1, §2, §3
For series [5], the system named is L-363 plasma cell leukemia cell line. Put plainly: CellTiter-Glo cell viability assay. It is filed as cell-based. Particulars: Homo sapiens, 72 h, read-out: PXD-101 IC50. The protocol:
as §1, §2, §3

For series [6], the system named is LP-1 multiple myeloma cell line. The series is described as follows: CellTiter-Glo cell viability assay. Particulars: Homo sapiens, LP-1, MM t(4;14)(p16;q32), 72 h, read-out: PXD-101 IC50. It is filed as cell-based. How it is done: as §1, §2, §3
Series [7] concerns OPM-2 multiple myeloma cell line. The series is described as follows: CellTiter-Glo cell viability assay. It is filed as cell-based. Particulars: Homo sapiens; OPM-2, MM t(4;14)(p16;q32); 72 h; read-out: PXD-101 IC50. The protocol:
as §1, §2, §3

Series [8] has as its system RPMI-8226 multiple myeloma cell line. Put plainly: CellTiter-Glo cell viability assay. The format is cell-based. Particulars: Homo sapiens, 72 h, read-out: PXD-101 IC50. How it is done: as §1, §2, §3
For series [9], the system named is SK-MM-2 plasma cell leukemia cell line. Put plainly: CellTiter-Glo cell viability assay. The format is cell-based. Particulars: Homo sapiens; SK-MM-2, plasma cell leukemia t(11;14)(q13;q32); 72 h; read-out: PXD-101 IC50. How it is done:
as §1, §2, §3

Series [10] has as its system U266 multiple myeloma cell line. The series is described as follows: CellTiter-Glo cell viability assay. It is filed as cell-based. Particulars: Homo sapiens, U-266, 72 h, read-out: PXD-101 IC50. The protocol:
as §1, §2, §3

For series [11], the system named is six multiple myeloma cell lines, three plasma cell leukemia cell lines and one plasmacytoma. Put plainly: CellTiter-Glo cell viability assay, all ten cell lines. Particulars: 72 h. The format is cell-based. The protocol: as §1, §2, §3
Series [12] deals with diverse tumor cell lines. The series is described as follows: Proliferation of diverse tumor cell lines. It is filed as cell-based.
A short description of series [13]: Phase 1 dose escalation study, safety. It is filed as in vivo, human. The protocol: (§4) A Phase 1 open label, dose escalation, safety, pharmacokinetics (PK), and pharmacodynamics (PD) study of PXD-101 was conducted in patients with advanced cancers.
(§5) PXD-101 was administered as a 30-minute intravenous (IV) infusion daily for 5-days every 3-weeks. In a subgroup of patients, PXD-101 was administered orally once, twice or thrice on day 1 only, in course 2 or 3. Acetylation of histones extracted from peripheral blood mononuclear cells (PBMNC) was measured by Western blotting. The PK/PD profile of intravenous and oral PXD-101 was evaluated.
The results of this study are as follows: 34 patients (median age 58 years, range 28-74; 19 male, all ECOG PS≤2) have been treated with a total of 103 cycles of PXD-101 (median 2; range 1 to 13) at 6 dose levels: 150 mg/m^2 (4 patients), 300 mg/m^2 (4 patients), 600 mg/m^2 (6 patients), 900 mg/m^2 (3 patients), 1000 mg/m^2 (12 patients) and 1200 mg/m^2 (5 patients).

A short description of series [14]: Phase 1 dose escalation study, pharmacokinetics. The format is in vivo, human. Particulars: for half-life / Cmax / bioavailability: human, in vivo. How it is done:
as §4, §5

Series [15] relates to histone H4 acetylation in peripheral blood mononuclear cells. The series is described as follows: Phase 1 study, pharmacodynamics: acetylation of histones from PBMNC by Western blotting. It is filed as in vivo, human. The protocol: as §5
On the technique in general: Immunoblotting shows a protein as a band on a membrane.

For series [16], the system named is advanced cancers. The series is described as follows: Phase 1 study, tumor reduction in patients with advanced cancers. The format is in vivo, human. Particulars: a patient with epithelial mediastinal thymoma. The protocol: A Phase 1 open label, dose escalation, safety, pharmacokinetics (PK), and pharmacodynamics (PD) study of PXD-101 was conducted in patients with advanced cancers. PXD-101 was administered as a 30-minute intravenous (IV) infusion daily for 5-days every 3-weeks. In a subgroup of patients, PXD-101 was administered orally once, twice or thrice on day 1 only, in course 2 or 3. Acetylation of histones extracted from peripheral blood mononuclear cells (PBMNC) was measured by Western blotting. The PK/PD profile of intravenous and oral PXD-101 was evaluated.

Series [17] concerns A2780 ovarian cancer subcutaneous xenograft. Put plainly: A2780 ovarian cancer subcutaneous xenograft model. It is filed as in vivo. Particulars: AVASTIN 5 mg/kg on day 4, mice. How it is done:
The object of this study was to investigate the tumour growth inhibitory effect of AVASTIN® (bevacizumab) in an A2780 ovarian cancer subcutaneous xenograft model. Mice were treated on day 4 with AVASTIN® (bevacizumab) (5 mg/kg). The chemosensitising effect of PXD-101 in combination with AVASTIN® (bevacizumab) was also investigated.

A word on the IC50: it is the point on the concentration scale where inhibition reaches its midpoint. One may read the Cmax as the peak of the concentration-time curve. Broadly, the bioavailability is the share of a dose that reaches the circulation, judged against a reference dose that is usually intravenous. Consider `O=C(/C=C/c1cccc(S(=O)(=O)Nc2ccccc2)c1)NO` [PXD-101], for which the IC50 stood at 29 nM in [1]; 123 nM in series [2]; 112 nM in [3]; 88 nM in series [4]; 100 nM in [5]; 45 nM in series [6]. Besides, the IC50 is 106 nM in [7]; 196 nM in series [8]; 28 nM in series [9]; 141 nM in series [10]; 97 nM in [11] (mean of ten cell lines, read-out: IC50, mean of the ten cell lines); 28 to 196 nM in series [11] (ten cell lines, read-out: IC50, range over the ten cell lines). The same compound registered an IC50 in series [12] of 80 to 2430 nM. In addition, the “Patients with dose limiting toxicity” value in [13] (both, human, in vivo, iv, 5 days every 3 weeks) was 3 patients. For the same compound, the “Most commonly reported other adverse events” value in series [13] (in vivo) was “fatigue, nausea, vomiting, constipation, diarrhea and injection site reactions”. In addition, in [13] (in vivo, iv), the Dose limiting toxicity result was “short-lived atrial fibrillation”. Moreover, the “Tolerability, in words” value in series [13] (in vivo, iv) is reported as “well tolerated”; in series [13] (in vivo, po), “well tolerated”. Also, the MTD in series [13] (once daily for 5-days 30-minute IV infusion) was found to be 1000 mg/m^2. Further, the “Accumulation, oral” value in [14] (8-hour interval dosing) is “tendency towards accumulation”; in [14] (12-hour interval dosing), “no accumulation”. Moreover, the half-life in series [14] (intravenous, one patient outside the range, read-out: t1/2, one patient (converted)) is 1.8 h; in [14] (iv, patients, IV infusion, read-out: Terminal elimination half-life), 0.5 to 1 h; in series [14] (po, 1000 mg/m2, b.i.d. 1000 mg/m^2 oral on a single day, 5 patients, read-out: t1/2), 1.5 to 2 h; in [14] (po, 1000 mg/m2, t.i.d. 1000 mg/m^2 oral on a single day, 2 patients, read-out: t1/2), 2 to 2.6 h. For the same compound, the highest concentration (Cmax) in series [14] (iv, reached at the end of the infusion) was 6500 to 55800 ng/mL; in series [14] (po, 1000 mg/m2, b.i.d. 1000 mg/m^2 oral on a single day, 5 patients), 1100 to 2900 ng/mL; in [14] (po, 1000 mg/m2, t.i.d. 1000 mg/m^2 oral on a single day, 2 patients) it was 1300 to 1800 ng/mL. In addition, the bioavailability was found to be 42.8% in series [14] (po, 1000 mg/m2, b.i.d. 1000 mg/m^2 oral on a single day, 5 patients, SD 12.5%, read-out: Mean oral bioavailability) and 33% in series [14] (po, oral single dose, read-out: Mean single dose oral bioavailability). Also, in series [14] (patients), the “Oral bioavailability, in words” value was “orally bioavailable”. Besides, the “PK dose dependence, in words” value in series [14] (patients, IV) is “dose-proportional”. Also, in series [14] (repeated IV dosing), the “Accumulation on repeated IV dosing” value is on record as “no drug accumulation”. In addition, the “Duration of histone H4 hyperacetylation” value in [15] (IV infusion, dose-dependent) was 4 to 24 h. Further, the “Duration of histone acetylation above baseline” value in series [15] (oral 1000 mg/m^2) was in the range of 5 to 10 h. Also, the “Histone acetylation above baseline” value in series [15] (oral 1000 mg/m^2) is 40-50%. For the same compound, in series [16], the “Reduction of mediastinal disease” value was 70%. Also, the “Time on the study” value in series [16] is on record as “over 1 year”.

As to “AVASTIN® (bevacizumab): recombinant humanized antibody to Vascular Endothelial Growth Factor (VEGF)”, in series [17], the “Tumour growth inhibition, in words” value is on record as “significant growth inhibition”.
